The record followed here is publication PMC11982498 (Redox Biology, 2025).

In general, pKd refers to −log10 of the Kd, conventionally taken in molar units. A high value points to a low Kd. By pIC50 is commonly meant the negative decadic logarithm of the IC50, by convention in mol/L. A higher pIC50 goes with a small IC50.

Experiment [1] addresses BCL-2 gene promoter i-motif. The experiment can be described thus: SPR binding to BCL-2 promoter i-motif. The conditions noted are these: MES buffer pH 5.5, 25 °C. On the procedure: SPR measurement was performed on a ProteOn XPR36 protein interaction array system (Bio-Rad Laboratories, Hercules, California, USA) using a Neutravidin-coated GLH sensor chip. BCL-2 i-motif binding analysis was performed following a published method without significant modification. For immobilization, 5′-biotin-labeled DNA oligomers at 800 nM annealed in 1 × MES buffer at pH 5.5 by heating at 95 °C for 5 min, were attached to a reptavidin-coated sensor chip. Compounds were prepared through serial dilution with flowing buffer (20 mM MES, 100 mM KCl, pH 5.5 for i-motif) in at least 6 concentrations, which were simultaneously injected at a flow rate of […] for a 120 s of association phase, followed by 250 s of dissociation phase at 25 °C. Langmuir model was used for fitting kinetic data, which was analyzed with ProteOn manager software. KD values were determined through equation KD = kd/ka. Compound A22 was used as a positive control, and other compounds were selected as candidates only if their KD values for binding to BCL-2 i-motif were similar to that of A22.
On the technique in general: Surface plasmon resonance follows binding to a sensor surface in real time, without labels.

The subject of experiment [2] is bEnd.3. Description: MTT cytotoxicity assay, bEnd.3. The experiment is classed as cell-based. The conditions noted are these: BEND3; incubation for 48 h. Background: Tetrazolium dyes change colour on reduction, which living cells bring about.
In experiment [3] the test system is BAX gene transcription in SH-SY5Y cells. Description: Real-time RT-PCR in SH-SY5Y cells, BAX. The experiment is classed as cell-based, human. The method, then:
(§1) SH-SY5Y cells were treated with or without B14, and total RNA was subsequently isolated and purified. Reverse transcription was performed using a cDNA synthesis kit. The relative transcription levels of the genes were evaluated through quantitative real-time PCR using the SYBR Green-based method, as described in the Supplementary Date. Details regarding the primer sequences and the raw data can be found in Table S7 and Table S8.
(§2) ^a -∆∆Ct = -[(Ct value of genes in treated sample - Ct value of genes in control) - (Ct value of β-actin in treated sample - Ct value of β-actin in control)]. ^b F: The relative expression fold.
Experiment 1: SH-SY5Y cells were treated with different concentration of B14. The Ct values of BAX, VEGF, CMYC and BCL-2 were obtained.
(§3) Total RNA was extracted from cells and mice liver tissue using RNAiso Plus (Takara, 9109, Japan). Following sample homogenization, chloroform was added, and the solution was allowed to have phase separation into an upper aqueous layer (containing RNA), an interphase, and a lower organic layer (containing DNA and proteins). RNA was precipitated from the aqueous phase using isopropanol, while DNA was precipitated from the aqueous-organic interphase using ethanol. Complementary DNA (cDNA) was synthesized using the One-Step RT-PCR Kit (Takara, Cat#639503, Japan).
(§4) Quantitative real-time polymerase chain reaction (qRT-PCR) was performed using the 2× RealStar SYBR Mixture (GenStar, Cat# A301-10, Guangzhou, China) on a LightCycler 480 II real-time PCR system (Roche, USA). Data were analyzed using the 2^−ΔΔCt method. Actin served as the internal control, and relative mRNA levels were normalized accordingly.

Experiment [4] has the same test system. The experiment can be described thus: Real-time RT-PCR in 25 μM Aβ1-42 cell model, BAX. It counts as cell-based, human. The method, then: as §1, §2
Experiment 2: The Ct values of BCL-2 and Bax in 25 μM Aβ1-42 model with different concentration of B14.
as §3, §4

Experiment [5] concerns the target T1, Aβ1-42 (Homo sapiens, UniProt P05067).
T1 construct: Aβ1-42 was purchased from Gill Biochemicals Ltd (Shanghai, China); purchased Gill Biochemicals Ltd (Shanghai, China)
The experiment can be described thus: Dot blot of Aβ1-42 fibril aggregation. The conditions noted are these: 20 μM compound, 24 h. It counts as biochemical.
Description: After incubation at 37 °C for 24 h, 10 μL aliquots of 20 μM Aβ1-42 reaction mixtures were spotted onto nitrocellulose membranes. Membranes were blocked for 2 h with 5 % non-fat milk in TBS. After washing, membranes were incubated with the anti-Aβ fibril antibody (1:1,000, CST, USA) dissolved in TBS containing 3 % bovine serum albumin (BSA, Beyotime, Jiangsu, China) and 0.01 % Tween-20 (Solarbio, Beijing, China), and developed using an alkaline-phosphatase anti-rabbit secondary antibody (1:5,000, Proteintech, China). The bands were then detected using an enhanced chemiluminescence (ECL) kit (Millipore, USA).
After incubation at 37 °C for 24h, 10 μL aliquots of 20 μM Aβ1-42 reactions were spotted onto nitrocellulose membranes. The membranes were blocked for 2 h with 5% non-fat milk in TBS. After washing, the membranes were incubated with the anti-Aβ fibril antibody (1:1000 dilution) dissolved in TBS containing 3% BSA and 0.01% Tween-20, and then developed using an alkaline-phosphatase antirabbit secondary antibody (1:5000 dilution). Invitrogen's Western Breeze Chemiluminescent kit was used to visualize the protein dots, and these dots were imaged using a FUJIFILM Luminescent Image Analyzer LAS-1000CH.

The test system of experiment [6] is BCL-2 i-motif. The experiment can be described thus: CD spectra of BCL-2 i-motif. It counts as binding. The method, then:
Figure S5. ESI-MS, UV, CD, and EMSA experiments were performed to examine the effect of B14 on BCL-2 promoter i-motif and G-quadruplex. (A) ESI-MS experiment for oligomer BCL-2 G4 alone, which was annealed in 1 × BPES buffer at pH 7.4. (B) ESI-MS experiment for above oligomer BCL-2 G4 with addition of B14 in 1 × BPES buffer at pH 7.4. (C-D) TO displacement with increasing amount of oligomer BCL-2 i-motif annealed in 1 X BPES buffer at pH 5.5 in the presence of 20 equivalents of B14 or A22. (E) EMSA experiment was performed for the effect of B14 on inducing BCL-2 i-motif formation. The lanes from left to right were as follow: BCL-2 i-motif alone at pH 5.5; BCL-2 i-motif alone at pH 6.2; BCL-2 i-motif plus 1 eq B14 at pH 6.2; BCL-2 i-motif plus 5 eq B14 at pH 6.2; BCL-2 i-motif plus 10 eq B14 at pH 6.2. (F) CD experiment was performed to study the interaction of B14 or A22 with BCL-2 promoter i-motif.
CD measurements were performed on a Chirascan circular dichroism spectrophotometer (Chirascan, England). A 10 mm path length quartz cuvette was used to record the spectra with a wavelength range of 230-350 nm with a 1 nm bandwidth. CD and CD melting experiments were performed at a fixed i-motif or G-quadruplex concentration (1 μM) with or without a fixed concentration (20 μM) of B14 and Curcumin in different buffers. […]

pIC50, pKd: −log10 of the molar value. Entries after “also recorded” stand apart in the source; their conditions may differ.

T1 sequence (P05067 672-713 limits assumed): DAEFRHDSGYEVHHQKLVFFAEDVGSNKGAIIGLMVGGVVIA

`O=C(CCN1CCOCC1)Nc1ccc2c(c1)c(=O)c1cc(NC(=O)CCN3CCOCC3)ccc1n2-c1ccc2occc2c1` [Compound B14] had a pKd in experiment [1] of 5.67. For the same compound, the pIC50 in experiment [2] is below 4.00. Further, the “-∆∆Ct, BAX” value in experiment [3] (6.25 μM B14) is on record as -0.13; in experiment [3] (12.5 μM B14), 0; in experiment [3] (25 μM B14), -0.03; in experiment [4] (25 μM Aβ1-42 + 6.25 μM B14), -1.71; in experiment [4] (25 μM Aβ1-42 + 12.5 μM B14) it was -1.09; in experiment [4] (25 μM Aβ1-42 + 25 μM B14) it was -0.80. Besides, the “F = 2^-∆∆Ct (relative expression fold), BAX” value in experiment [3] (6.25 μM B14) is 1.09; in experiment [3] (12.5 μM B14) it was 1.00; in experiment [3] (25 μM B14), 1.02; in experiment [4] (25 μM Aβ1-42 + 6.25 μM B14) it was 3.23; in experiment [4] (25 μM Aβ1-42 + 12.5 μM B14), 2.13; in experiment [4] (25 μM Aβ1-42 + 25 μM B14) it was 1.71. The “formation of Aβ fibers (dot blot)” value in experiment [5] is “reduced the formation of Aβ fibers and greatly decreased Aβ self-aggregation”. The “CD absorption peak of BCL-2 i-motif” value in experiment [6] was “stronger effect than A22; also recorded: apparently enhanced absorption peak at 286 nm”.
